Experimental data taken from patent US20260217687A1 (NeoPhore Limited, priority 2023, published 2026).

Assays:
Format in all cases: binding
[1] = biological target: T1, recombinant N-terminal MLH1 (residues 15-340) (Homo sapiens, UniProt P40692); experiment: Fluorescence Polarisation Assay for MLH1; conditions: 100 nM N-terminal MLH1, 5 nM probe compound
T1 construct: recombinant N-terminal MLH1 (residues 15-340)
T1 sequence (P40692 15-340): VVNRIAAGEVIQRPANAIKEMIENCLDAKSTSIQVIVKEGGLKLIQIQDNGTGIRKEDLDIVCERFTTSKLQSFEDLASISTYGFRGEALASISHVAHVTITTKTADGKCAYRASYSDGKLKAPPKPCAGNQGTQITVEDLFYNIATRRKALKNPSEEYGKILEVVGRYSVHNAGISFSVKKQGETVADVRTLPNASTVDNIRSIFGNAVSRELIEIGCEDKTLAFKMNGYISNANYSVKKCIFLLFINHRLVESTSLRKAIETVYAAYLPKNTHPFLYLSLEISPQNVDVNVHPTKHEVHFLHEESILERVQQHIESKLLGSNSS
Outline: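 Fluorescence polarisation displacement: 100 nM MLH1 (15-340) preincubated 30 min at room temperature with compound, then 5 nM rhodamine-labelled probe added and read immediately. Buffer 25 mM HEPES pH 7.5, 250 mM NaCl, 10 mM MgCl2, 0.01% Triton X-100, 5 mM DTT; normalised to no-inhibitor and no-enzyme controls.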

[2] = biological target: T2, recombinant N-terminal PMS2 (residues 1-365) (Homo sapiens, UniProt P54278); experiment: Fluorescence Polarisation Assay for PMS2; conditions: 10 nM N-terminal PMS2, 5 nM probe compound
T2 construct: recombinant N-terminal PMS2 (residues 1-365)
T2 sequence (P54278 1-365): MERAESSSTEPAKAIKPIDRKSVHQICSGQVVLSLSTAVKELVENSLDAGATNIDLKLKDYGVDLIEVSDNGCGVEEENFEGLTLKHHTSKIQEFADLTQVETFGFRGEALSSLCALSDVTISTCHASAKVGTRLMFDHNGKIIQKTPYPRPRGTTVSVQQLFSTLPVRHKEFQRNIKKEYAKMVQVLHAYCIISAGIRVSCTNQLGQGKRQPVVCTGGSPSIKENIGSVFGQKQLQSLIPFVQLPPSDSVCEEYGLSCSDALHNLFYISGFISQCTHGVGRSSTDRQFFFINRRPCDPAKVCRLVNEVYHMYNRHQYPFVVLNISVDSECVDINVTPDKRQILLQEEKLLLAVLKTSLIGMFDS
Experimental: Fluorescence Polarisation Assay for PMS2
Test compounds, as 10 mM DMSO stocks, were dispensed into a Black Fluotrac 200 384 well medium binding plate (Greiner Bio-One, item number 781076) using a Labcyte Echo acoustic liquid handler. For single point screening, test compounds were added to wells in columns 1-22 whilst DMSO was added to wells in columns 23 and 24 to normalise the plate. For potency determination, serial dilutions of test compounds were added to wells in columns 3-22 and DMSO volume was normalised across the plate. […] 20 μL assay buffer was added to all wells in columns 1 and 24 (column 24 only for single point screening) using a MultiDrop Combi (ThermoFisher). Plates were centrifuged for 1 minute at 250 xg and were incubated at room temperature for 30 minutes prior to the addition of 20 μL of 2×(20 nM) of 5-((5-(4-((2-(2,4-dihydroxy-5-isopropylbenzoyl) isoindolin-5-yl) methyl)piperazin-1-yl) pentyl)carbamoyl)-2-(6-(dimethylamino)-3-(dimethyliminio)-3H-xanthen-9-yl)benzoate (referred to hereinafter as “probe compound”) in assay buffer (prepared from a 100 μM DMSO stock) with a MultiDrop Combi (ThermoFisher). The final concentration of N-terminal PMS2 was 10 nM and the final concentration of probe compound was 5 nM. Compound plates were centrifuged for 1 minute at 250 xg for 1 minute and were incubated at room temperature for 1 hour before being read on a PheraStar FSX (fitted with 384-well aperture spoon and 540 590 590 FP optic module). The gain and focus were adjusted before each plate was read so that the polarisation of a no enzyme control (column 24) was equal to 35 mP. Data were normalised against the no inhibitor controls (column 23) and no enzyme controls (column 24).

[3] = biological target: T3, recombinant HSP90α (full length with an N-terminal His6-tag) (Homo sapiens, UniProt P07900); experiment: Fluorescence Polarisation Assay for HSP90; conditions: 30 nM HSP90α, 5 nM FITC-Geldanymycin
T3 construct: recombinant HSP90α (full length with an N-terminal His6-tag, BPS Bioscience); His6 (N); purchased BPS Bioscience
Experimental: Fluorescence Polarisation Assay for HSP90
Test compounds, solubilised to a concentration of 10 mM in DMSO, were dispensed into a Black Fluotrac 200 384 well medium binding plates (Greiner Bio-One, item number 781076) using a Labcyte Echo acoustic liquid handler. For single point screening, test compounds were added to wells in columns 1-22 whilst for potency determination, serial dilutions of test compounds were added to wells in columns 3-22; in all cases, DMSO volume was normalised across the entire plate. All subsequent liquid handling steps were conducted using a Multidrop Combi (Thermo Scientific) or Matrix electronic pipettors (Thermo Scientific).
20 μL assay buffer was added to all wells in columns 1 and 24 (column 24 only for single point screening). Plates were centrifuged for 1 minute at 250 xg and were incubated at room temperature for 30 minutes prior to the addition of 20 μL of 2×(10 nM) of FITC-Geldanymycin in assay buffer (Abcam ab141589, prepared from a 100 μM DMSO stock). […]
Compound plates were centrifuged for 1 minute at 250 xg and were incubated at room temperature for 3 hours before being read on a PheraStar FSX (fitted with 384-well aperture spoon and 485 520 520 FP optic module). The gain and focus were adjusted before each plate was read so that the polarisation of a no enzyme control (column 24) was equal to 35 mP. […]

| SMILES | IC50 [1] | IC50 [2] | IC50 [3] |
| --- | --- | --- | --- |
| CN1CC[C@H](Oc2ccc3c(c2)CN(C(=O)c2c(O)cc(C(F)F)cc2OCc2ccccc2)C3)C1 [Example 4.56, (S)-(2-(Benzyloxy)-4-(difluoromethyl)-6-hydroxyphenyl)(5-((1-methylpyrrolidin-3-yl)oxy)isoindolin-2-yl)methanone] | < 0.1 µM | 1 to 10 µM | – |
| O=C(c1c(O)cc(C(F)F)cc1OCc1ccccc1)N1Cc2ccc(OC3CCNCC3)cc2C1 [Example 26, (2-(Benzyloxy)-4-(difluoromethyl)-6-hydroxyphenyl)(5-(piperidin-4-yloxy)isoindolin-2-yl)methanone] | < 0.1 µM | 1 to 10 µM | – |
| CN1CCC(Oc2ccc3c(c2)CN(C(=O)c2c(O)cc(C(F)F)cc2OCC2CC2)C3)CC1 [Example 4.59, (2-(Cyclopropylmethoxy)-4-(difluoromethyl)-6-hydroxyphenyl)(5-((1-methylpiperidin-4-yl)oxy)isoindolin-2-yl)methanone] | 0.1 to 1 µM | – | 1 to 10 µM |
| CN1CCC(Oc2ccc3c(c2)CN(C(=O)c2c(O)cc(C(F)F)cc2OCc2ccccc2)C3)CC1 [Example 4.32, (2-(Benzyloxy)-4-(difluoromethyl)-6-hydroxyphenyl)(5-((1-methylpiperidin-4-yl)oxy)isoindolin-2-yl)methanone] | < 0.1 µM | 1 to 10 µM | 1 to 10 µM |
| CN(C)CCOc1ccc2c(c1)CCN(C(=O)c1c(O)cc(C(F)F)cc1OCc1ccccc1)C2 [Example 4.41, (2-(Benzyloxy)-4-s(difluoromethyl)-6-hydroxyphenyl)(6-(2-(dimethylamino)ethoxy)-3,4-dihydroisoquinolin-2(1H)-yl)methanone] | 0.1 to 1 µM | 0.1 to 1 µM | – |
| O=C(c1c(O)cc(F)cc1OCc1ccccc1)N1Cc2cccc(N[C@@H]3CCOC3)c2C1 [Example 6, (R)-(2-(Benzyloxy)-4-fluoro-6-hydroxyphenyl)(4-((tetrahydrofuran-3-yl)amino)isoindolin-2-yl)methanone] | 1 to 10 µM | – | – |
| CN(C)CCOc1cc2c(c(N[C@H]3CCOC3)c1)CN(C(=O)c1c(O)cc(C#N)cc1OCc1ccccc1)C2 [Example 19, (S)-3-(Benzyloxy)-4-(6-(2-(dimethylamino)ethoxy)-4-((tetrahydrofuran-3-yl)amino)isoindoline-2-carbonyl)-5-hydroxybenzonitrile] | 0.1 to 1 µM | – | – |
| COc1cc2c(c(N[C@H]3CCOC3)c1)CN(C(=O)c1c(O)cc(C#N)cc1OCc1ccccc1)C2 [Example 10.14, (S)-3-(Benzyloxy)-5-hydroxy-4-(6-methoxy-4-((tetrahydrofuran-3-yl)amino)isoindoline-2-carbonyl)benzonitrile] | 0.1 to 1 µM | – | – |
| CN1CCC(Oc2ccc3c(c2)CN(C(=O)c2c(O)cc(F)cc2OCc2ccccc2)C3)CC1 [Example 10.25, (2-(Benzyloxy)-4-fluoro-6-hydroxyphenyl) (5-((1-methylpiperidin-4-yl)oxy)isoindolin-2-yl) methadone] | 0.1 to 1 µM | 1 to 10 µM | – |
| Cn1ncc2ccc(COc3cc(C(F)F)cc(O)c3C(=O)N3CCc4cccc(N[C@H]5CCOC5)c4C3)cc21 [Example 28, (S)-(4-(Difluoromethyl)-2-hydroxy-6-((1-methyl-1H-indazol-6-yl)methoxy)phenyl)(8-((tetrahydrofuran-3-yl)amino)-3,4-dihydroisoquinolin-2(1H)-yl)methanone] | < 0.1 µM | – | – |
| O=C(c1c(O)cc(C(F)F)cc1OCc1ccccc1)N1CCc2ccc(NC3CCOC3)cc21 (stereo not shown) [Example 27.2, (2-(Benzyloxy)-4-(difluoromethyl)-6-hydroxyphenyl)(6-((tetrahydrofuran-3-yl)amino)indolin-1-yl)methanone] | 0.1 to 1 µM | – | – |
| CN1CCC(Oc2ccc3c(c2)CCN(C(=O)c2c(O)cc(C(F)F)cc2OCc2ccccc2)CC3)CC1 [Example 27.7, (2-(Benzyloxy)-4-(difluoromethyl)-6-hydroxyphenyl)(7-((1-methylpiperidin-4-yl)oxy)-1,2,4,5-tetrahydro-3H-benzo[d]azepin-3-yl)methanone] | 0.1 to 1 µM | – | – |
| O=C(c1c(O)cc(Cl)cc1OCc1ccccc1)N1Cc2cccc(N[C@@H]3CCOC3)c2C1 [Example 7, (R)-(2-(Benzyloxy)-4-chloro-6-hydroxyphenyl)(4-((tetrahydrofuran-3-yl)amino)isoindolin-2-yl)methanone] | 1 to 10 µM | – | – |
| O=C(c1c(O)cc(C(F)F)cc1OCc1ccccc1)N1CCc2cc(NC3CCOC3)ccc21 (single isomer, unassigned) [Example 27.5b, (S)-(2-(Benzyloxy)-4-(difluoromethyl)-6-hydroxyphenyl)(5-((tetrahydrofuran-3-yl)amino)indolin-1-yl)methanone or (R)-(2-(Benzyloxy)-4-(difluoromethyl)-6-hydroxyphenyl)(5-((tetrahydrofuran-3-yl)amino)indolin-1-yl)methanone] | 0.1 to 1 µM | – | – |
| COc1ccc(COc2cc(C(F)F)cc(O)c2C(=O)N2CCc3cccc(N[C@H]4CCOC4)c3C2)cc1 [Example 4.11, (S)-(4-(Difluoromethyl)-2-hydroxy-6-((4-methoxybenzyl)oxy)phenyl)(8-((tetrahydrofuran-3-yl)amino)-3,4-dihydroisoquinolin-2(1H)-yl)methanone] | 0.1 to 1 µM | – | – |
| CN(C)CCOc1cc2c(c(N[C@H]3CCOC3)c1)CN(C(=O)c1c(O)cc(C#N)cc1OCc1ccccc1)CC2 [Example 15, (S)-3-(Benzyloxy)-4-(6-(2-(dimethylamino)ethoxy)-8-((tetrahydrofuran-3-yl)amino)-1,2,3,4-tetrahydroisoquinoline-2-carbonyl)-5-hydroxybenzonitrile] | < 0.1 µM | – | – |
| CN1CC(Nc2cccc3c2CN(C(=O)c2c(O)cc(Cl)cc2OCc2ccccc2)C3)C1 [Example 10.20, (2-(Benzyloxy)-4-chloro-6-hydroxyphenyl)(4-((1-methylazetidin-3-yl)amino)isoindolin-2-yl)methanone] | 0.1 to 1 µM | – | – |
| O=C(c1c(O)cc(C(F)F)cc1OCc1ccccc1)N1CCc2ncnc(NC3CCOC3)c2C1 (stereo not shown) [Example 27.20, (2-(Benzyloxy)-4-(difluoromethyl)-6-hydroxyphenyl)(4-((tetrahydrofuran-3-yl)amino)-7,8-dihydropyrido[4,3-d]pyrimidin-6(5H)-yl)methanone] | 0.1 to 1 µM | – | – |
